Measured values published in patent US20180200233A1, “COMPOSITIONS FOR PREVENTING CANCERS ASSOCIATED WITH HUMAN PAPILLOMA VIRUSES” (Loma Linda University, priority 2015, published 2018).

Experiments:
[1] = system: caspase 3/7 activity in SiHa cells; assay: Caspase 3/7 activity assay in SiHa cells; format: cell-based, human; conditions: 100 μM myricetin or 50 μM spinacine 4 h, TRAIL 100 ng/ml + cycloheximide, 0-6 h
Procedure: FIGS. 4A-C are graphs showing that myricetin and spinacine (5) increased caspase 3/7 activity in SiHa cells following treatment with TRAIL and chemotherapy drugs. SiHa cells (2×10^4 cells per well) were seeded into a 96-well plate and allowed to incubate overnight, then pre-treated with 100 μM of myricetin or 50 μM of spinacine for 4 h. (FIG. 4A) TRAIL (100 ng/ml), along with cycloheximide (5 μg/ml), (FIG. 4B) cisplatin (50 μM), or (FIG. 4C) doxorubicin (2 μM) were added respectively. Caspase 3/7 activity was measured after 0, 1.5, 3, and 6 hours using the […] assay. Activity at 0 h of treatment was set at 100% for each group. […]
Activation of caspase 3/7 is an essential marker for both extrinsic and intrinsic apoptosis, and can be used to determine whether cell death occurs through the apoptotic pathway. […] To test this, caspase 3/7 activity was measured in SiHa cells following TRAIL, cisplatin and doxorubicin treatment in the presence or absence of myricetin or spinacine.
Cells were plated into 96-well plates at a density of 2×10^4 cells per well and incubated overnight. […] Caspase 3/7 activity was measured using the […] for caspase 3/7 activity (Promega, Fitchburg, Wis., USA) following the manufacturer's instructions. […] The resulting difference was expressed as a percentage of the caspase activity of the untreated cells.

[2] = target: T1, GST-E6/His-caspase 8 (Human papillomavirus type 16, UniProt P03126); assay: AlphaScreen bead-based assay, GST-E6/His-caspase 8 binding; parameters: species or system HPV 16
T1 construct: made in house
T1 sequence (P03126 whole entry): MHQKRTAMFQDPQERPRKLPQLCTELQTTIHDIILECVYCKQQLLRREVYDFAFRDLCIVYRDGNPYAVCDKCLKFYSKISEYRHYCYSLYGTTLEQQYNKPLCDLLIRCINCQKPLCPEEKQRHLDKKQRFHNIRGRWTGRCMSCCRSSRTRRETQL
Procedure: FIGS. 2A-C are graphs providing data regarding inhibition of protein-protein interactions by 3-(1H-indol-1yl)propan-1-amine (1), three benzimidazole derivatives (2-4), and spinacine (5). Compounds, at the indicated concentrations (1.4 μM to 3.2 mM) were tested using a bead-based screening assay for their ability to inhibit three different protein/protein interactions: (FIG. 2A) GST-E6/His-caspase 8; (FIG. 2B) GST-E6/HisE6AP; and (FIG. 2C) GST-caspase 8/His-caspase 8. Binding in the presence of 1.4 μM of the test compound was set at 100%. Experiments were performed in triplicate, and error bars indicate the standard deviation.
HPV E6 binds to caspase 8 (Garnett, T. O., M. Filippova, and P. J. Duerksen-Hughes, Accelerated degradation of FADD and procaspase 8 in cells expressing human papilloma virus 16 E6 impairs TRAIL-mediated apoptosis. Cell death and differentiation, 2006. 13(11): p. 1915-26), and myricetin can block the E6/caspase 8 interaction in vitro (Yuan, C. H., et al., Small molecule inhibitors of the HPV16-E6 interaction with caspase 8. Bioorganic & medicinal chemistry letters, 2012. 22(5): p. 2125-9). A bead-based assay based on AlphaScreen™ technology (Perkin-Elmer) is used to identify inhibitors of the E6/caspase 8 interaction (Yuan, C. H., et al., Small molecule inhibitors of the HPV16-E6 interaction with caspase 8. Bioorganic & medicinal chemistry letters, 2012. 22(5): p. 2125-9). The ActiProbe 2K (2,000 compounds) library was screened using the same approach. […] Analysis of the structures and physical/chemical characteristics of those molecules led to the selection of five additional compounds: 3-(1H-indol-1-yl)propan-1-amine methanesulfonate (1), benzimidazole (2), 1H-benzimidazole-1-methanol (3), 2-(methoxymethyl)-1H-benzimidazole (4), and spinacine (5) for further study (FIG. 1).
To determine the dose-responsiveness of these five compounds, variable concentrations of those small molecules were first tested for their ability to inhibit E6/caspase binding. […] These molecules, which had been selected for their ability to interfere with E6/caspase 8 binding, were then tested to determine if they could also affect other interactions of E6, such as its binding to E6-associated protein (E6AP). The E6/E6AP interaction is required for the E6-mediated acceleration of p53 degradation (Huibregtse, J. M., M. Scheffner, and P. M. Howley, A cellular protein mediates association of p53 with the E6 oncoprotein of human papillomavirus types 16 or 18. The EMBO journal, 1991. 10(13): p. 4129-35).
Alpha-Screen™ technology was used to assess the interactions between GST-E6, GST-caspase 8, His-E6AP, and His-caspase 8. Binding assays were performed in white 384-well plates (Perkin-Elmer) in a total volume of 25 μl as previously described (Tungteakkhun, S. S., et al., The interaction between human papillomavirus type 16 and FADD is mediated by a novel E6 binding domain. Journal of virology, 2008. 82(19): p. 9600-14). Briefly, 5 μl (50 ng) of GST-E6 and 5 μl (87.5 ng) of His-caspase 8 were included in each reaction mixture with 5 μl blocking buffer (0.5 mg BSA, 0.5% Tween 20 in PBS) in the absence or presence of 10 μM of each test chemical. […] The mixture was incubated in the dark at room temperature overnight, and the emitted signal was detected using the Envision Multilabel plate reader (Perkin-Elmer). In the presence of test chemicals, the binding affinity was calculated as a percentage of the binding in the presence of carrier only (DMSO).

Row | SMILES | caspase 3/7 activity when combined with TRAIL (in words) [1] | EC50 for GST-E6/His-caspase 8 interaction ([2]; bead-based assay, compounds tested 1.4 μM to 3.2 mM) | inhibition of E6/caspase 8 binding (in words) ([2]; FIG. 2A, primary screen at 10 μM)
1 | O=c1c(O)c(-c2cc(O)c(O)c(O)c2)oc2cc(O)cc(O)c12 [Myricetin, reference compound] | increased significantly |  | 
2 | OCn1cnc2ccccc21 [Compound 3, 1H-benzimidazole-1-methanol] |  | No Inhibition | 
3 | O=C(O)C1Cc2[nH]cnc2CN1 (stereo not shown) [Compound 5, 4,5,6,7-Tetrahydro-1H-imidazo(4,5-c)pyridine-6-carboxylic acid] | increased significantly |  | dose-dependent inhibition
